Laboratory results: the kinase profiling compilation of Christmann-Franck et al. (2016)

molecular target: PRKCZ (human) (UniProt Q05513); assay: radiometric filter-binding kinase assay, Kinase HotSpot; details: compound 0.5 µM; ATP 10 µM

Row | Structure (SMILES) | residual activity [%]
1 | CC(C)(C)c1nc2c3ccc(F)cc3c3c(=O)[nH]ccc3c2[nH]1 | 93.2
2 | CS(=O)c1ccc(-c2nc(-c3ccc(F)cc3)c(-c3ccncc3)[nH]2)cc1 (centres undefined) | 103

molecular target: CSNK1A1 (human) (UniProt P48729); assay: as above; details: compound 0.5 µM; ATP 10 µM
Sequence (P48729 whole entry, looked up): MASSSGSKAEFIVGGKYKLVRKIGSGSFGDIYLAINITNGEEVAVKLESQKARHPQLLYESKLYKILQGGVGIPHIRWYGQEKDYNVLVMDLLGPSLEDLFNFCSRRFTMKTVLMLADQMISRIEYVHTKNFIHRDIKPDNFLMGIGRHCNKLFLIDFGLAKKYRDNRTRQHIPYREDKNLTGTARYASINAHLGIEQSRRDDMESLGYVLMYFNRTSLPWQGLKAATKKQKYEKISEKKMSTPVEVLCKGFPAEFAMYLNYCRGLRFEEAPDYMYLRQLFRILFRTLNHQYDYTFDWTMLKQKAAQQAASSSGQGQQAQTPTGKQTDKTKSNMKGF

Row | Structure (SMILES) | residual activity [%]
3 | CC(C)[C@H](CO)Nc1nc(Nc2cccc(Cl)c2)c2ncn(C(C)C)c2n1 | 91.8
4 | COc1cc2ncnc(Nc3ccc(F)c(Cl)c3)c2cc1OCCCN1CCOCC1 | 98.6
5 | C#Cc1cccc(Nc2ncnc3cc(OCCOC)c(OCCOC)cc23)c1 | 98.6
6 | CC(C)(C)c1nc2c3ccc(F)cc3c3c(=O)[nH]ccc3c2[nH]1 | 94.6
7 | CS(=O)c1ccc(-c2nc(-c3ccc(F)cc3)c(-c3ccncc3)[nH]2)cc1 (centres undefined) | 63.9

molecular target: MAP3K2 (human) (UniProt Q9Y2U5); assay: as above; details: compound 0.5 µM; ATP 10 µM
Sequence (Q9Y2U5 whole entry, looked up): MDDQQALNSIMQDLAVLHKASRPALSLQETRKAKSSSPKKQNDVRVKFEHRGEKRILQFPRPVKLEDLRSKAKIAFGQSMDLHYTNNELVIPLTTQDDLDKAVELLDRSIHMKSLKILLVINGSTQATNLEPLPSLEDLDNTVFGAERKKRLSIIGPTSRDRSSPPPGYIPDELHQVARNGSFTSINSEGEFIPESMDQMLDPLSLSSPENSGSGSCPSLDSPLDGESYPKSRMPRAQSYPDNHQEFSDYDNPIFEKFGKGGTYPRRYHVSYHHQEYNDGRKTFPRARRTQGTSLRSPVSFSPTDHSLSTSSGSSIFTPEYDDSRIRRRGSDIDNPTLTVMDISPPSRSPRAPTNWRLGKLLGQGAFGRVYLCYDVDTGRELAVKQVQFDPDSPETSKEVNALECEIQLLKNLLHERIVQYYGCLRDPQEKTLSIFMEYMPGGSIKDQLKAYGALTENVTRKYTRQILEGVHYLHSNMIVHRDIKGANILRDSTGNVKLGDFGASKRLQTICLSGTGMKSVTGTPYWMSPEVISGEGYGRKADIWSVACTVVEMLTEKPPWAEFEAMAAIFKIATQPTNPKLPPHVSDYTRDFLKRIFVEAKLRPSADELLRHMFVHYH

Row | Structure (SMILES) | residual activity [%]
8 | CC(C)[C@H](CO)Nc1nc(Nc2cccc(Cl)c2)c2ncn(C(C)C)c2n1 | 97.8
9 | COc1cc2ncnc(Nc3ccc(F)c(Cl)c3)c2cc1OCCCN1CCOCC1 | 109
10 | C#Cc1cccc(Nc2ncnc3cc(OCCOC)c(OCCOC)cc23)c1 | 117
11 | CC(C)(C)c1nc2c3ccc(F)cc3c3c(=O)[nH]ccc3c2[nH]1 | 33.9
12 | CS(=O)c1ccc(-c2nc(-c3ccc(F)cc3)c(-c3ccncc3)[nH]2)cc1 (centres undefined) | 95.3

molecular target: MATK (human) (UniProt P42679); assay: as above; details: compound 0.5 µM; ATP 10 µM
Sequence (P42679 whole entry, looked up): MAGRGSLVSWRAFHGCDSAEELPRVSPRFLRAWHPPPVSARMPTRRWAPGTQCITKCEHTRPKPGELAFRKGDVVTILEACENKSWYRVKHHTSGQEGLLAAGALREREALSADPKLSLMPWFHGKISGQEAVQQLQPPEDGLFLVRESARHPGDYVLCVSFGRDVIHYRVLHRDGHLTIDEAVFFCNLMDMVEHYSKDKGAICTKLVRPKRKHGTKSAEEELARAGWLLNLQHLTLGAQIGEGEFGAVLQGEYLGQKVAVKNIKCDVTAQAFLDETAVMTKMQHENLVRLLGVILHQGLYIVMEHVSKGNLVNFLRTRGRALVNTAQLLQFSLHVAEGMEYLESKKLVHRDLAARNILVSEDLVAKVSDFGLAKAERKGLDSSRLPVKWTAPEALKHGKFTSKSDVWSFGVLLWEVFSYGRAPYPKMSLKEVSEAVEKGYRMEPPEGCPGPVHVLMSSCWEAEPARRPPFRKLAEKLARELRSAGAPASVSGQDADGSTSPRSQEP

Row | Structure (SMILES) | residual activity [%]
13 | CC(C)[C@H](CO)Nc1nc(Nc2cccc(Cl)c2)c2ncn(C(C)C)c2n1 | 93.1
14 | COc1cc2ncnc(Nc3ccc(F)c(Cl)c3)c2cc1OCCCN1CCOCC1 | 86.4
15 | CC(C)(C)c1nc2c3ccc(F)cc3c3c(=O)[nH]ccc3c2[nH]1 | 102
16 | CS(=O)c1ccc(-c2nc(-c3ccc(F)cc3)c(-c3ccncc3)[nH]2)cc1 (centres undefined) | 95.6

molecular target: JAK3 JH1 JH2 (human) (UniProt P52333); assay: as above; details: compound 0.5 µM; ATP 10 µM
Sequence (P52333 whole entry, looked up): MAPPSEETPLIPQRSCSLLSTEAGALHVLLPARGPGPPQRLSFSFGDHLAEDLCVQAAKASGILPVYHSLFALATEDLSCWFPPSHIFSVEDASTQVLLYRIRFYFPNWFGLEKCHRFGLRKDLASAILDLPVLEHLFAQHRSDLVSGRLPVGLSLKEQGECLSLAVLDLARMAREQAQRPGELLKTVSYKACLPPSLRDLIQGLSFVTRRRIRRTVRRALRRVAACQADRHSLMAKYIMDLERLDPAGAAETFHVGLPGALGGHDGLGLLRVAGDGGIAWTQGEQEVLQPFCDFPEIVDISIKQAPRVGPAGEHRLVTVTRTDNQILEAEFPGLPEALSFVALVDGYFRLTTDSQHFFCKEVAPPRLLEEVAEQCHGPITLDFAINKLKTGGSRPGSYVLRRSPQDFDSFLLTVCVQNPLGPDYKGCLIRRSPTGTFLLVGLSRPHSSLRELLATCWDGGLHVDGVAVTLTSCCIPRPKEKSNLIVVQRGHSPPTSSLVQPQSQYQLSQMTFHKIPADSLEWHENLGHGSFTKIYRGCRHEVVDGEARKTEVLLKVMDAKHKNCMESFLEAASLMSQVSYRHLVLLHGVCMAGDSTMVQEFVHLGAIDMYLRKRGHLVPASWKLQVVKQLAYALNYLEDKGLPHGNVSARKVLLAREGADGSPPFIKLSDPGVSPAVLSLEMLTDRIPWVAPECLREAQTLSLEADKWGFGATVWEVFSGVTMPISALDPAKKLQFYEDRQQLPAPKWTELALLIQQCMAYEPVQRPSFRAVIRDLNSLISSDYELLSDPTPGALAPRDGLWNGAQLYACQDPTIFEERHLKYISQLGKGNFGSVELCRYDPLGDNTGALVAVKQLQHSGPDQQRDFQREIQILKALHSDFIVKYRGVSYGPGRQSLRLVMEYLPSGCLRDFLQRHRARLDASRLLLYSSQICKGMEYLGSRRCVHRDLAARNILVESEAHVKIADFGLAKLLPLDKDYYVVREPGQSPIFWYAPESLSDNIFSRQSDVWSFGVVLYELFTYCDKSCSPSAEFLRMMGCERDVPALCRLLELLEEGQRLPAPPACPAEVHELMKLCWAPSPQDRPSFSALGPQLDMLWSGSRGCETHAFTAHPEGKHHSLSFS

Row | Structure (SMILES) | residual activity [%]
17 | CC(C)[C@H](CO)Nc1nc(Nc2cccc(Cl)c2)c2ncn(C(C)C)c2n1 | 92.5
18 | COc1cc2ncnc(Nc3ccc(F)c(Cl)c3)c2cc1OCCCN1CCOCC1 | 96.6
19 | C#Cc1cccc(Nc2ncnc3cc(OCCOC)c(OCCOC)cc23)c1 | 91.3
20 | CC(C)(C)c1nc2c3ccc(F)cc3c3c(=O)[nH]ccc3c2[nH]1 | 0.445
21 | CS(=O)c1ccc(-c2nc(-c3ccc(F)cc3)c(-c3ccncc3)[nH]2)cc1 (centres undefined) | 93.9

molecular target: LCK (human) (UniProt P06239); assay: as above; details: compound 0.5 µM; ATP 10 µM

Row | Structure (SMILES) | residual activity [%]
22 | CC(C)[C@H](CO)Nc1nc(Nc2cccc(Cl)c2)c2ncn(C(C)C)c2n1 | 86.9
23 | CS(=O)c1ccc(-c2nc(-c3ccc(F)cc3)c(-c3ccncc3)[nH]2)cc1 (centres undefined) | 95

molecular target: TGFBR2 (human) (UniProt P37173); assay: as above; details: compound 0.5 µM; ATP 10 µM
Sequence (P37173 whole entry, looked up): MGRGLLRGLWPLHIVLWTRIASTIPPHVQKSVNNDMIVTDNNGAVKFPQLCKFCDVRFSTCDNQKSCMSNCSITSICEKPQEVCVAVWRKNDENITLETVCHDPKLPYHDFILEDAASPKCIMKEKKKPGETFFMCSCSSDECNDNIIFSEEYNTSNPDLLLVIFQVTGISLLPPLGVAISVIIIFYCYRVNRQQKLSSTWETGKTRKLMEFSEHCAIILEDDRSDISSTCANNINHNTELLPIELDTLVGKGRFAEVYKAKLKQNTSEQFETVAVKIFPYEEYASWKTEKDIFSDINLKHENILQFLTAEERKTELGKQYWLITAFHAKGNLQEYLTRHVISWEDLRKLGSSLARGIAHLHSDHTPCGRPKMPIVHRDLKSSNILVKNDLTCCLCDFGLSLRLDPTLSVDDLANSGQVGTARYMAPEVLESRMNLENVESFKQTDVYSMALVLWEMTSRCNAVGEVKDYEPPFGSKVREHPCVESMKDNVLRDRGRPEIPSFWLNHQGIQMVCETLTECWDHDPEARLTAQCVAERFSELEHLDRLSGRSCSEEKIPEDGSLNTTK

Row | Structure (SMILES) | residual activity [%]
24 | CC(C)[C@H](CO)Nc1nc(Nc2cccc(Cl)c2)c2ncn(C(C)C)c2n1 | 98.1
25 | COc1cc2ncnc(Nc3ccc(F)c(Cl)c3)c2cc1OCCCN1CCOCC1 | 93.8
26 | C#Cc1cccc(Nc2ncnc3cc(OCCOC)c(OCCOC)cc23)c1 | 91.8
27 | CC(C)(C)c1nc2c3ccc(F)cc3c3c(=O)[nH]ccc3c2[nH]1 | 58.2
28 | CS(=O)c1ccc(-c2nc(-c3ccc(F)cc3)c(-c3ccncc3)[nH]2)cc1 (centres undefined) | 144

molecular target: STK3 (human) (UniProt Q13188); assay: as above; details: compound 0.5 µM; ATP 10 µM
Sequence (Q13188 whole entry, looked up): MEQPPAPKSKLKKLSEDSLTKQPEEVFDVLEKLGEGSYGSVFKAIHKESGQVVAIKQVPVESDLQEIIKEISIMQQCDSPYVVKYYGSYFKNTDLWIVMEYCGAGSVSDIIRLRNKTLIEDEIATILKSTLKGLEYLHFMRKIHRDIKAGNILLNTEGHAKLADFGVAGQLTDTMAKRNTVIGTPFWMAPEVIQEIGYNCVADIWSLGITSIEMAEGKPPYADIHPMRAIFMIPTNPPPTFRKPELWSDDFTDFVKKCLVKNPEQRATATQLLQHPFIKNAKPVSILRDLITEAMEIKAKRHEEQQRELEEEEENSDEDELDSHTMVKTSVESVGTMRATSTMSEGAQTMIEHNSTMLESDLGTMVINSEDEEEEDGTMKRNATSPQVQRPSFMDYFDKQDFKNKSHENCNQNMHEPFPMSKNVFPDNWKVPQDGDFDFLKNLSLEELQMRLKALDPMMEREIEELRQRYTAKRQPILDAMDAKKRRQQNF

Row | Structure (SMILES) | residual activity [%]
29 | CC(C)[C@H](CO)Nc1nc(Nc2cccc(Cl)c2)c2ncn(C(C)C)c2n1 | 90.8
30 | COc1cc2ncnc(Nc3ccc(F)c(Cl)c3)c2cc1OCCCN1CCOCC1 | 93.6
31 | C#Cc1cccc(Nc2ncnc3cc(OCCOC)c(OCCOC)cc23)c1 | 94.9
32 | CC(C)(C)c1nc2c3ccc(F)cc3c3c(=O)[nH]ccc3c2[nH]1 | 5.45
33 | CS(=O)c1ccc(-c2nc(-c3ccc(F)cc3)c(-c3ccncc3)[nH]2)cc1 (centres undefined) | 102

molecular target: WNK3 (human) (UniProt Q9BYP7); assay: as above; details: compound 0.5 µM; ATP 10 µM

Row | Structure (SMILES) | residual activity [%]
34 | CC(C)[C@H](CO)Nc1nc(Nc2cccc(Cl)c2)c2ncn(C(C)C)c2n1 | 89.1
35 | COc1cc2ncnc(Nc3ccc(F)c(Cl)c3)c2cc1OCCCN1CCOCC1 | 102
36 | C#Cc1cccc(Nc2ncnc3cc(OCCOC)c(OCCOC)cc23)c1 | 101
37 | CC(C)(C)c1nc2c3ccc(F)cc3c3c(=O)[nH]ccc3c2[nH]1 | 90
38 | CS(=O)c1ccc(-c2nc(-c3ccc(F)cc3)c(-c3ccncc3)[nH]2)cc1 (centres undefined) | 99

molecular target: MAP2K1 (human) (UniProt Q02750); assay: as above; details: compound 0.5 µM; ATP 10 µM
Sequence (Q02750 whole entry, looked up): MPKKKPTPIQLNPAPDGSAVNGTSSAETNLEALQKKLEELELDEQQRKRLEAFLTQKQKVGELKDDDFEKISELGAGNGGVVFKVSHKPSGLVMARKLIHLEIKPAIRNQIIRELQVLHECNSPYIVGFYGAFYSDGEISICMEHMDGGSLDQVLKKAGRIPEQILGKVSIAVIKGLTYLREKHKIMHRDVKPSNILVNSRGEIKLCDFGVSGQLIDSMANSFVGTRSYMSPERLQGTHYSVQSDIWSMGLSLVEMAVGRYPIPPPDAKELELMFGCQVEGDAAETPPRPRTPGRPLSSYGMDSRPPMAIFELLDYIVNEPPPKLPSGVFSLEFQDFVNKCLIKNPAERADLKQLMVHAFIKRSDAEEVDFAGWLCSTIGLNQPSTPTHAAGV

Row | Structure (SMILES) | residual activity [%]
39 | CC(C)[C@H](CO)Nc1nc(Nc2cccc(Cl)c2)c2ncn(C(C)C)c2n1 | 96
40 | COc1cc2ncnc(Nc3ccc(F)c(Cl)c3)c2cc1OCCCN1CCOCC1 | 107
41 | C#Cc1cccc(Nc2ncnc3cc(OCCOC)c(OCCOC)cc23)c1 | 105
42 | CC(C)(C)c1nc2c3ccc(F)cc3c3c(=O)[nH]ccc3c2[nH]1 | 94.9
43 | CS(=O)c1ccc(-c2nc(-c3ccc(F)cc3)c(-c3ccncc3)[nH]2)cc1 (centres undefined) | 94.8

molecular target: SRMS (human) (UniProt Q9H3Y6); assay: as above; details: compound 0.5 µM; ATP 10 µM
Sequence (Q9H3Y6 whole entry, looked up): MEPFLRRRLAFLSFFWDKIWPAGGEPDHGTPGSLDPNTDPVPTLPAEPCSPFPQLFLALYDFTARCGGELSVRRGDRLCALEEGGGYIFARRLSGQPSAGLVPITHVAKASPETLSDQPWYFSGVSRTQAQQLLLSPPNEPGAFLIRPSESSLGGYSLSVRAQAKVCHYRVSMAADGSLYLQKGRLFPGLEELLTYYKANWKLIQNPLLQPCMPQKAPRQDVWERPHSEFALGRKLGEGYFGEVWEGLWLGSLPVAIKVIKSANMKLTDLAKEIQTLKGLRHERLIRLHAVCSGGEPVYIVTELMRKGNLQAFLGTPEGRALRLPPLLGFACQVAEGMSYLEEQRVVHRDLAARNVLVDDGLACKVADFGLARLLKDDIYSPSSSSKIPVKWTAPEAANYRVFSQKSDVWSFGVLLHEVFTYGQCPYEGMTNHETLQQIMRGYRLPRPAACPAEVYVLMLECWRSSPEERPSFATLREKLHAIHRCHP

Row | Structure (SMILES) | residual activity [%]
44 | CC(C)[C@H](CO)Nc1nc(Nc2cccc(Cl)c2)c2ncn(C(C)C)c2n1 | 104
45 | COc1cc2ncnc(Nc3ccc(F)c(Cl)c3)c2cc1OCCCN1CCOCC1 | 96.4
46 | C#Cc1cccc(Nc2ncnc3cc(OCCOC)c(OCCOC)cc23)c1 | 93.2
47 | CC(C)(C)c1nc2c3ccc(F)cc3c3c(=O)[nH]ccc3c2[nH]1 | 98.7
48 | CS(=O)c1ccc(-c2nc(-c3ccc(F)cc3)c(-c3ccncc3)[nH]2)cc1 (centres undefined) | 102

molecular target: PTK2B (human) (UniProt Q14289); assay: as above; details: compound 0.5 µM; ATP 10 µM

Row | Structure (SMILES) | residual activity [%]
49 | CC(C)[C@H](CO)Nc1nc(Nc2cccc(Cl)c2)c2ncn(C(C)C)c2n1 | 66.5
